From patent publication US10544143B2, “4-azaindole compounds” (BRISTOL-MYERS SQUIBB COMPANY, priority 2017, dated 2020)
pIC50: −log10 of the molar value. Where two headings read alike, the source gives them in different places.

Key:
[1] = target: human TLR9 (Homo sapiens (Human), UniProt Q9NR96); assay: TLR9 inhibition reporter assay (HEK-Blue SEAP);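 also: SEAP driven by an IFN-β minimal promoter with NF-κB and AP-1 sites, read after 22 h, compounds dosed 0.05 nM–50 µM, inhibition scaled between agonist plus DMSO and reference-inhibitor wells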
Sequence of human TLR9 (Q9NR96 26-1032): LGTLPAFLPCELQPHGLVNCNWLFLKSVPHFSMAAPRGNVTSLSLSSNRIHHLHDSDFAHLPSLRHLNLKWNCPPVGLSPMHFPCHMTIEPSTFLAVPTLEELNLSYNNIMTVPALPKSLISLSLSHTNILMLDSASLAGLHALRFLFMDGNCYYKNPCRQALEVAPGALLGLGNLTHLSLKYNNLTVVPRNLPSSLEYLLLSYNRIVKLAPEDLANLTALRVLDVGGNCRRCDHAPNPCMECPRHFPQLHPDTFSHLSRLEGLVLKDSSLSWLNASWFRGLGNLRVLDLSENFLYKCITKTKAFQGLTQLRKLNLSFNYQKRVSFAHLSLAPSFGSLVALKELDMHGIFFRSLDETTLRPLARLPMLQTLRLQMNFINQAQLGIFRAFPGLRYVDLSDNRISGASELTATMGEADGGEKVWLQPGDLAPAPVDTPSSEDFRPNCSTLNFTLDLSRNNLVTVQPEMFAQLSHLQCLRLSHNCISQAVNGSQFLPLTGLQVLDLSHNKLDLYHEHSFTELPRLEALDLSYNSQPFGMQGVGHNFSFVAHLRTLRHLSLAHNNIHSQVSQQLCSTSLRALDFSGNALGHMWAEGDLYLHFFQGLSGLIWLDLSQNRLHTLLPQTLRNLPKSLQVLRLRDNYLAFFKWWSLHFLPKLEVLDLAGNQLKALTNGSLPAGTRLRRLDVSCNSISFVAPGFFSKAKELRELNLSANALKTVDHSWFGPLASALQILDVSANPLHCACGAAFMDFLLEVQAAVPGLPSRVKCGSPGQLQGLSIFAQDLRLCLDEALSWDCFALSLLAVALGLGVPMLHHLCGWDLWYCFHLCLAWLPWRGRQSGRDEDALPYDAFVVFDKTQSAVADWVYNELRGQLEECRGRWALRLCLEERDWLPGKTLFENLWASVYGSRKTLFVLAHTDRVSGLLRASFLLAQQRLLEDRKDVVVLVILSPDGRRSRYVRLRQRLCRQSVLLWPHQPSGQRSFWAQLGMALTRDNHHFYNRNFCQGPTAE

[2] = target: human TLR8 (Homo sapiens (Human), UniProt Q9NR97); assay: TLR8 inhibition reporter assay (HEK-Blue SEAP);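 also: SEAP driven by IFN-β minimal promoter carrying NF-κB and AP-1 sites, compounds dosed 0.05 nM to 50 µM for 22 h, inhibition scaled between agonist-plus-DMSO and reference-inhibitor wells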
Sequence of human TLR8 (Q9NR97 27-1041): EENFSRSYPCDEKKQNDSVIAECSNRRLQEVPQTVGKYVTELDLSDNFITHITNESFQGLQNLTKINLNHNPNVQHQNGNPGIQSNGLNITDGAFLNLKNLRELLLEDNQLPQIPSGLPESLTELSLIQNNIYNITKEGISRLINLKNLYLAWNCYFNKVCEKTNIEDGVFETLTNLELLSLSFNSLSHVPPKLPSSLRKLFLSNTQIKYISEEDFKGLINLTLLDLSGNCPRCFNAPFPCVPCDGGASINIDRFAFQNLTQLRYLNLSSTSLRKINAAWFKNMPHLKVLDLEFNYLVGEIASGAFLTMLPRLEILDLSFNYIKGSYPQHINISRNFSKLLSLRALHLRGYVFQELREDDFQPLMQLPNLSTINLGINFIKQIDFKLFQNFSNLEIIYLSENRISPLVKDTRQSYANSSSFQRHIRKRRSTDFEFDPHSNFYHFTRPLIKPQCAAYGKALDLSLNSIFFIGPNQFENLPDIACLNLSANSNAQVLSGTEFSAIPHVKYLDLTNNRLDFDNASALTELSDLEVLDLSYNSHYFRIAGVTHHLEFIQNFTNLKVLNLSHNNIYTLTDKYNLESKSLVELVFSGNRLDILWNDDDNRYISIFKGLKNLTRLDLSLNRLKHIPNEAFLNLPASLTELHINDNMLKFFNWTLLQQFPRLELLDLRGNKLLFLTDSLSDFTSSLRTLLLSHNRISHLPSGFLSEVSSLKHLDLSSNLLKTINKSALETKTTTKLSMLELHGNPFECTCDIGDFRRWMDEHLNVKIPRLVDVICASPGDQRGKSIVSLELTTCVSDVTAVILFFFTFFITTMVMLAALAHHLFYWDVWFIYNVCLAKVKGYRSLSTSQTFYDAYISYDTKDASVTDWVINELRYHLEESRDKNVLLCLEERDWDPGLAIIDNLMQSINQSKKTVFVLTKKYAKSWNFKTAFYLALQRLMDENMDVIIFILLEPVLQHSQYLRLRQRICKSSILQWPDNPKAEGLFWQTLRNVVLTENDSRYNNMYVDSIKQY

[3] = target: human TLR7 (Homo sapiens (Human), UniProt Q9NYK1); assay: TLR7 inhibition reporter assay (HEK-Blue SEAP); format: cell-based
Sequence of human TLR7 (Q9NYK1 27-1049): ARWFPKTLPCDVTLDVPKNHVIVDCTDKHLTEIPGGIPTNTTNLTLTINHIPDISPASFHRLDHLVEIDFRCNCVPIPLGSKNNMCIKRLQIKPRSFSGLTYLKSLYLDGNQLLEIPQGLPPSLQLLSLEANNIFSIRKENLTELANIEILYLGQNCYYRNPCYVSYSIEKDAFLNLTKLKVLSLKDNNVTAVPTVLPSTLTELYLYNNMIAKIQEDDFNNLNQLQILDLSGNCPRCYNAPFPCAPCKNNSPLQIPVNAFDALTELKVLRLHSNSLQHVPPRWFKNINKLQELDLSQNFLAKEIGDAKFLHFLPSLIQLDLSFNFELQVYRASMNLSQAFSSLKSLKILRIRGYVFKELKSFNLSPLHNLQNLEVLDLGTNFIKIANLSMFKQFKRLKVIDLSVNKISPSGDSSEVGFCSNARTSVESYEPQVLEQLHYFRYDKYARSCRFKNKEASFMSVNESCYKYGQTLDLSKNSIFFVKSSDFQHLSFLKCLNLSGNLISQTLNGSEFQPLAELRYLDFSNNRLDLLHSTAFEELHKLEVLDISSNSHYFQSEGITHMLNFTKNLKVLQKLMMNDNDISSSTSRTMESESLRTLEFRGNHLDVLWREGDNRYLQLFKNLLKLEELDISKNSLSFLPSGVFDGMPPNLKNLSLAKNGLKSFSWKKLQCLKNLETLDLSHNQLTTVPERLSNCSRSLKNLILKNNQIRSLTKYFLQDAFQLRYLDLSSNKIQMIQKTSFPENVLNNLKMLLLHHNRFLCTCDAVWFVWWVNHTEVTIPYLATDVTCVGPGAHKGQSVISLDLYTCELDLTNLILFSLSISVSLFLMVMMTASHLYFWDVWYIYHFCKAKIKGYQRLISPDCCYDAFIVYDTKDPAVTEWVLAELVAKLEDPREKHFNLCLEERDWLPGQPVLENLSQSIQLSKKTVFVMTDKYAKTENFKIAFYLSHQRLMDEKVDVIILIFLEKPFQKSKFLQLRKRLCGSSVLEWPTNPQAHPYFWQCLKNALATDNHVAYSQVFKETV

[4] = read-out: TLR9 IC50, HEK-Blue cells overexpressing human TLR9, SEAP reporter, ODN2006 5 nM
[5] = read-out: TLR8 IC50, HEK-Blue cells overexpressing human TLR8, SEAP reporter, R848 15.9 μM
[6] = HEK-Blue cells overexpressing human TLR7, SEAP reporter, gardiquimod 7.5 μM
[7] = read-out: TLR9 IC50, HEK-Blue human TLR9 cells, ODN2006 5 nM
[8] = read-out: TLR8 IC50, HEK-Blue human TLR8 cells, R848 15.9 μM
[9] = HEK-Blue human TLR7 cells, gardiquimod 7.5 μM
[10] = read-out: TLR9 IC50, HEK-Blue cells overexpressing human TLR9, ODN2006 5 nM stimulation, SEAP reporter
[11] = read-out: TLR8 IC50, HEK-Blue cells overexpressing human TLR8, R848 15.9 μM stimulation, SEAP reporter
[12] = HEK-Blue cells overexpressing human TLR7, gardiquimod 7.5 μM stimulation, SEAP reporter

SMILES | pIC50 [1, 4] | pIC50 [2, 5] | pIC50 [1, 10] | pIC50 [2, 11] | pIC50 [3, 12] | other results
Cc1c(-c2[nH]c3ccc(N4CC5(CN(C(=O)CN(C)C)C5)C4)nc3c2C(C)C)cn2ncnc2c1C [Example 743, 1-(6-(2-(7,8-dimethyl-[1,2,4]triazolo[1,5-a]pyridin-6-yl)-3-isopropyl-1H-pyrrolo[3,2-b]pyridin-5-yl)-2,6-diazaspiro[3.3]heptan-2-yl)-2-(dimethylamino)ethan-1-one] | 5.73 | 8.08 |  |  |  | pIC50 [3, 6]: 8.44
Cc1c(-c2[nH]c3ccc(N4CCN(C(=O)CN(C)CC(C)(C)O)CC4)nc3c2C(C)C)cn2ncnc2c1C [Example 949] |  |  |  |  |  | pIC50 [1, 7]: 4.51; pIC50 [2, 8]: 8.80; pIC50 [3, 9]: 8.59
Cc1c(-c2[nH]c3ccc(N4CCN(C5CCOCC5)CC4)nc3c2C(C)C)cn2ncnc2c1C [Example 101] |  |  | 5.19 | 9.60 | 8.43 | 
CC(C)c1c(-c2cc(CO)c3ncnn3c2)[nH]c2ccc(C3CCC(N(C)Cc4ccc(F)cc4)CC3)nc12 (stereo not drawn) [Example 306] |  |  | 5.00 | 7.21 | 7.89 | 
Cc1c(-c2[nH]c3ccc(N4CCN(C(=O)CN(CCO)C(C)(C)C)[C@H](C)C4)nc3c2C(C)C)cn2ncnc2c1C [Example 955] |  |  |  |  |  | pIC50 [1, 7]: 4.69; pIC50 [2, 8]: 8.70; pIC50 [3, 9]: 9.12
CNC1CN(c2ccc3[nH]c(-c4cn5ncnc5c(C)c4C)c(C(C)C)c3n2)C1 [Example 23] |  |  | < 4.30 | < 5.51 | < 5.51 | 
CC(C)c1c(-c2cn(C)c3ncncc23)[nH]c2ccc(N3CCN(C(=O)CCN(C)C)CC3)nc12 [Example 124] |  |  | 5.24 | 8.33 | 8.92 | 
Cc1c(-c2[nH]c3ccc(N4C[C@H](C)N(CC(N)=O)[C@@H](C)C4)nc3c2C(C)C)cn2ncnc2c1C [Example 759] | 4.42 | 7.85 |  |  |  | pIC50 [3, 6]: 8.42
Cc1c(-c2[nH]c3ccc(N4CCNCC4)nc3c2C(C)C)cn2ncnc2c1C [Example 2, 6-(3-isopropyl-5-(piperazin-1-yl)-1H-pyrrolo[3,2-b]pyridin-2-yl)-7,8-dimethyl-[1,2,4]triazolo[1,5-a]pyridine] |  |  | 5.14 | 9.57 | 8.77 | 
Cc1c(-c2[nH]c3ccc(C4CCC(N5CC(S(C)(=O)=O)C5)CC4)nc3c2C(C)C)cn2ncnc2c1C (stereo not drawn) [Example 445] | 5.31 | 8.44 |  |  |  | pIC50 [3, 6]: 8.82
COc1cc(-c2[nH]c3ccc(C4CCN(C(=O)CN(C)C)CC4)nc3c2C(C)C)cn2ncnc12 [Example 549] | 6.40 | 7.74 |  |  |  | pIC50 [3, 6]: 8.74
COc1cc(-c2[nH]c3ccc(C4CCC(N5CCC6(COC6)C5)CC4)nc3c2C(C)C)cn2ncnc12 (stereo not drawn) [Example 1068] |  |  |  |  |  | pIC50 [1, 7]: 5.53; pIC50 [2, 8]: 8.74; pIC50 [3, 9]: 9.06
CC(C)c1c(-c2cn(C)c3ncccc23)[nH]c2ccc(C3CCC(N(C)CC(=O)N(C)C)CC3)nc12 (stereo not drawn) [Example 200] |  |  | 6.11 | 8.07 | 8.74 | 
Cc1c(-c2[nH]c3ccc(C4CN(C(C)C)CCO4)nc3c2C(C)C)cn2ncnc2c1C (stereo not drawn) [Example 658] | 4.87 | 8.09 |  |  |  | pIC50 [3, 6]: 8.42
CCCN1CCC(c2ccc3[nH]c(-c4cn(C)c(=O)c(Cl)c4C)c(C(C)C)c3n2)CC1 [Example 568] | 5.68 | 8.42 |  |  |  | pIC50 [3, 6]: 8.22
COc1cc(-c2[nH]c3cc(F)c(C4CCC(N5CC6(COC6)C5)CC4)nc3c2C(C)C)cn2ncnc12 (stereo not drawn) [Example 343] |  |  | 5.90 | 9.27 | 9.72 | 
[2H]C([2H])([2H])N(C([2H])([2H])[2H])C([2H])([2H])C(=O)N1C([2H])([2H])C([2H])([2H])N(c2ccc3[nH]c(-c4cn5ncnc5c(C)c4C)c(C(C)C)c3n2)C([2H])([2H])C1([2H])[2H] (single isomer, unassigned) [Example 891] |  |  |  |  |  | pIC50 ([1]; TLR9 IC50, HEK-Blue human TLR9 cells, ODN2006 5 nM): 4.75; pIC50 ([2]; TLR8 IC50, HEK-Blue human TLR8 cells, R848 15.9 μM): 9.03; pIC50 [3, 9]: 9.19
COc1cc(-c2[nH]c3ccc(C4CCC(N5CCCC5)CC4)nc3c2C(C)C)cn2ncnc12 (stereo not drawn) [Example 199] |  |  | 5.92 | 8.19 | 9.80 | 
Cc1c(-c2[nH]c3ccc(N4CCN(C(=O)CN5CCC(F)(F)C5)CC4)nc3c2C(C)C)cn2ncnc2c1C [Example 919] |  |  |  |  |  | pIC50 [1, 7]: 4.86; pIC50 [2, 8]: 9.00; pIC50 [3, 9]: 7.64
COc1cc(-c2[nH]c3ccc(N4CC5(CNC5)C4)nc3c2C(C)C)cn2ncnc12 [Example 1016] |  |  |  |  |  | pIC50 [1, 7]: 6.19; pIC50 [2, 8]: 7.42; pIC50 [3, 9]: 8.54
CC(C)c1c(-c2cc(CO)c3ncnn3c2)[nH]c2ccc(N3CCC(NC4CCOCC4)CC3)nc12 [Example 80] |  |  | 5.34 | 8.80 | 8.89 | 
Cc1cc(-c2[nH]c3cc(F)c(C4CCN(CC(=O)N(C)C)CC4)nc3c2C(C)C)cn2ncnc12 [Example 580] | 5.75 | 8.06 |  |  |  | pIC50 [3, 6]: 9.39
COc1cc(-c2[nH]c3ccc(N4CCN(CC(N)=O)CC4)nc3c2C(C)C)cn2ncnc12 [Example 130] |  |  | < 4.30 | 8.33 | 8.37 | 
COc1ncc(CN(C)C2CCC(c3ccc4[nH]c(-c5cn6ncnc6c(C)c5C)c(C(C)C)c4n3)CC2)cn1 (stereo not drawn) [Example 395] | 5.79 | 8.00 |  |  |  | pIC50 [3, 6]: 8.13

SMILES | pIC50 [1, 4] | pIC50 [2, 5] | pIC50 [1, 10] | pIC50 [2, 11] | pIC50 [3, 12] | other results
Cc1c(-c2[nH]c3ccc(N4CCC(NCc5csnn5)CC4)nc3c2C(C)C)cn2ncnc2c1C [Example 56] |  |  | 5.20 | 8.96 | 8.70 | 
CC(C)c1c(-c2cn(C)c3ncccc23)[nH]c2ccc(N3CC(NC4CCOCC4)C3)nc12 [Example 36] |  |  | 4.66 | < 5.51 | < 5.51 | 
CC(C)c1c(-c2cn(C)c3ncccc23)[nH]c2ccc(N3CCC(N(CC#N)CC#N)CC3)nc12 [Example 52] |  |  |  | 7.70 | 8.10 | 
Cc1c(-c2[nH]c3ccc(C4CCC(N5CCN(C)C(=O)C5)CC4)nc3c2C(C)C)cn2ncnc2c1C (stereo not drawn) [Example 443] |  | 7.24 |  |  |  | pIC50 [3, 6]: 7.82
Cc1c(-c2[nH]c3ccc(C4CCC(N(C)Cc5ncccn5)CC4)nc3c2C(C)C)cn2ncnc2c1C (stereo not drawn) [Example 417] | 5.02 | 8.15 |  |  |  | 
CC(C)c1c(-c2cc(CO)c3ncnn3c2)[nH]c2ccc(C3CCC(NCC(=O)N(C)C)CC3)nc12 (stereo not drawn) [Example 222] |  |  | 6.18 | 7.68 |  | 
Cc1cnc(CNC2CCC(c3ccc4[nH]c(-c5cc(CO)c6ncnn6c5)c(C(C)C)c4n3)CC2)cn1 (stereo not drawn) [Example 217] |  |  | 6.28 | 8.07 |  | 
Cc1cc(-c2[nH]c3ccc(C4CCN(C5COC5)CC4)nc3c2C(C)C)cn(C)c1=O [Example 528] | 5.24 | 7.64 |  |  |  | 
Cc1c(-c2[nH]c3ccc(C4CCC(N(CCO)CC(=O)N(C)C)CC4)nc3c2C(C)C)cn2ncnc2c1C (stereo not drawn) [Example 468] |  | 7.00 |  |  |  | pIC50 [3, 6]: 7.34
Cc1c(-c2[nH]c3ccc(N4C[C@H]5C[C@@H](C4)N5C(=O)CN(C)C)nc3c2C(C)C)cn2ncnc2c1C [Example 754] | 5.27 | 8.77 |  |  |  | 
Cc1c(-c2[nH]c3ccc(C4CCC(N5CC6(COC6)C5)CC4)nc3c2C(C)C)cn2ncnc2c1C (stereo not drawn) [Example 435] | 5.66 | 8.26 |  |  |  | 
Cc1c(-c2[nH]c3ccc(N4CC(N5CCOCC5)C4)nc3c2C(C)C)cn2ncnc2c1C [Example 39, 4-(1-(2-(7,8-dimethyl-[1,2,4]triazolo[1,5-a]pyridin-6-yl)-3-isopropyl-1H-pyrrolo[3,2-b]pyridin-5-yl)azetidin-3-yl)morpholine] |  |  |  | 8.32 | 7.40 | 
Cc1c(-c2[nH]c3ccc(C4CCC(N(C)Cc5ncccn5)CC4)nc3c2C(C)C)cn2ncnc2c1C (stereo not drawn) [Example 418] | 5.54 | 8.41 |  |  |  | 
CC(C)c1c(-c2cc(CO)c3ncnn3c2)[nH]c2ccc(C3CCC(NCC(=O)N(C)C)CC3)nc12 (stereo not drawn) [Example 216] |  |  | 6.38 | 7.74 |  | 
Cc1c(-c2[nH]c3ccc(C4CCC(N5CC(C#N)C5)CC4)nc3c2C(C)C)cn2ncnc2c1C (stereo not drawn) [Example 436] | 5.05 | 7.57 |  |  |  | 
Cc1c(-c2[nH]c3ccc(N4C[C@H]5C[C@@H](C4)N5C(C)C)nc3c2C(C)C)cn2ncnc2c1C [Example 755] | 5.43 | 8.21 |  |  |  | 
COc1cc(-c2[nH]c3ccc(C4CCC(NCC5(S(C)(=O)=O)CC5)CC4)nc3c2C(C)C)cn2ncnc12 (stereo not drawn) [Example 223] |  |  | 6.31 | 8.85 |  | 
COc1cc(-c2[nH]c3cc(C)c(C4CCC(NCC(C)(C)O)CC4)nc3c2C(C)C)cn2ncnc12 (stereo not drawn) [Example 321] |  |  | 5.98 | 8.52 |  | 
Cc1c(-c2[nH]c3ccc(C4CCC(N5CC6(COC6)C5)CC4)nc3c2C(C)C)cn2ncnc2c1C (stereo not drawn) [Example 437] | 5.43 | 7.96 |  |  |  | 
COCCNC1CCC(c2nc3c(C(C)C)c(-c4cc(OC)c5ncnn5c4)[nH]c3cc2C)CC1 (stereo not drawn) [Example 335] |  |  | 5.72 | 8.40 |  | 
COc1cc(-c2[nH]c3ccc(N4CCN(C5CCOC5)CC4)nc3c2C(C)C)cn2ncnc12 (stereo not drawn) [Example 103] |  |  |  | 8.59 | 8.14 | 
Cc1c(-c2[nH]c3ccc(N4CCN(C(=O)CN5CC6(CCO6)C5)CC4)nc3c2C(C)C)cn2ncnc2c1C [Example 918] |  |  |  |  |  | pIC50 [1, 7]: 4.69; pIC50 [2, 8]: 8.20
Cc1c(-c2[nH]c3ccc(N4CCN(C(=O)CN5CCC(F)C5)CC4)nc3c2C(C)C)cn2ncnc2c1C (stereo not drawn) [Example 917] |  |  |  |  |  | pIC50 [1, 7]: 4.36; pIC50 [2, 8]: 8.54
